A melting point compilation (Tetko et al.; mined from patent text by program, amines drawn as free bases though some values may be those of a salt)

melting point [°C] | Compound
203 to 205 | O=c1cc(N2CCOCC2)oc2c(-c3cccc(O)c3)cccc12
94 to 97 | O=C(c1cccs1)c1cnn2c(-c3ccc(F)c(N(C(=O)OCC(Cl)(Cl)Cl)C(=O)OCC(Cl)(Cl)Cl)c3)ccnc12
217 to 221 | O=C(/C=C/c1cccc(NS(=O)(=O)c2ccc(C(=O)Nc3ccc(Cl)c(-c4ccccn4)c3)c(Cl)c2)c1)NO
107 to 108 | C#CCn1cc(F)cnc1=O
205 to 206 | CCOC(=O)c1[nH]c2cc(Br)c(Cl)cc2c1-c1ccccc1
154 to 157 | CSC(=Nc1nc(C)cc(C)n1)NS(=O)(=O)c1ccccc1-c1ccccc1
87 to 91 | CCCCNc1cccc(-c2ccnc3c(C(=O)c4cccs4)cnn23)c1
48.5 to 49.5 | CCCCCCCCCCCCc1cc(N)on1
162 | CC(=O)Nc1nc2c(s1)-c1nc(-c3cc(C#CC4CCNCC4)ccc3Cl)ncc1CC2
213 to 214 | CN1C(=O)Cn2cc(C(=O)NCc3ccc(Cl)cc3)c(=O)c3cc(CN4CCOCC4)cc1c32
300 | Nc1nc2cc3nc(NC(=O)CCl)sc3cc2s1
102 | CCCCCCCCCc1c(C(F)(F)F)noc1NS(=O)(=O)c1ccccc1
185 to 186 | CCC1CS(=O)(=O)c2ccccc2C2(c3ccccc3)OC12 (stereo unspecified)
153 to 154 | O=C(NNC(=O)C(F)(F)F)c1ccccc1
194 to 195 | Cn1cc(-c2ccnc(N[C@H]3CC[C@H](O)CC3)n2)c2ccccc21
169 | Cn1ncnc1COc1nn2c(-c3ccccc3F)nncc2c1-c1ccccc1F
66 | FC(F)(F)c1ccc(Oc2cc(Cl)nc(Cl)c2)c(Cl)c1
232 to 235 | CN(Cc1ccc(NC(=O)C2=Cc3cc(Br)ccc3S(=O)(=O)CC2)cc1)C1CCOCC1
75 to 76 | Clc1ccc(-n2cc(Br)cn2)cc1

melting point [°C] | Compound
94 to 96 | CC(=O)NC[C@H]1CN(c2ccc(N3CCC(N)(C#N)CC3)c(F)c2)C(=O)O1
215 to 216 | Cc1ccc2c(c1)c1cc(-c3cccc(Br)c3)c(=O)n(C)c1n2C
174 to 175 | CCCCOc1c(CNC(=O)OC(C)(C)C)n(CC(C)C)c(=O)c2ccc(NC(C)=O)cc12
177 to 179 | NC(=O)Cn1ccc2ccccc21
150 to 154 | ON=C1CCC(c2ccc(Cl)cc2)c2ccccc21 (stereo unspecified)
144 to 146 | COc1cccc(C2Cc3ccccc3C2=O)c1 (stereo unspecified)
130 to 131 | O=Cc1nccn1Cc1cn(-c2ccc(Cl)c(Cl)c2)cn1
202 | O=C(Nc1ccccc1)Nc1onc2c1CCC2
238 | CCOP(=O)(OCC)C(c1cccnc1)C(O)c1ccccc1 (stereo unspecified)
253 to 254 | COc1c(N2CCC(O)C2)c(F)cc2c(=O)c(C(=O)O)cn(C3CC3)c12 (stereo unspecified)
186 to 189 | CCC(CC)c1[nH]c(C)c(C(C)=O)c1C
98 to 101 | CCCSc1ncc(CO)n1Cc1ccccc1Cl
211 to 224 | CNC(=O)c1cccc(F)c1Nc1nc(Nc2ccc3c(c2)N(CCOC)C(=O)CCC3)ncc1Br
184 to 186 | Cc1cccc2c(=O)[nH]c(N3CCN(C)C(CO)C3)cc12 (stereo unspecified)
250 to 251 | Cc1ccc2nc(-c3ccc4nc(N)sc4c3)sc2c1
> 300 | O=C(O)c1cc(-c2ccccc2)c(=O)n2c1-c1sccc1C2
213 | Cc1n[nH]c(C)c1-c1cccc(OC2SCC(O)C(O)C2O)c1 (stereo unspecified)
251 to 253 | CC(C)c1cccc(C(C)C)c1NC(=O)CN1CN(c2ccccc2)C2(CCCCC2)C1=O

Compound | melting point [°C]
CCCCCCCCCCCc1nnc2n1-c1ccccc1C(c1ccccc1)=NC2 | 76 to 77
CC(=O)Nc1ccc(Cl)cc1C(=O)c1ccccc1Cl | 108 to 110
O=C1C2C[C@H](O)CN2C(=O)N1c1ccc([N+](=O)[O-])c2ccccc12 (stereo partly specified) | 246 to 248
CCOC(=O)C1=C(C)NC(C)=C2C(=O)Oc3cccnc3C12 (stereo unspecified) | 100 to 150
